Test [1] has as its target T1, full-length HAQ STING (Homo sapiens, UniProt Q86WV6, G230A/H232R/R293Q/R71H).
T1 construct: Full-Length HAQ STING [STING(1-379)R71H, G230A, H232R,; made in house; host or cells: Trichoplusia ni (Hi-Five) insect cells via baculovirus (virus made in Sf21); used as a membrane preparation
As to the kind of experiment: 3H-cGAMP filtration binding assay (HAQ STING). Conditions: competition with tritiated cGAMP ligand, HAQ STING membrane. An excerpt: The ability of compounds to bind STING is quantified by the ability to compete with tritiated cGAMP ligand for human STING receptor membrane using a radioactive filter-binding assay. The binding assay employs STING receptor obtained from Hi-Five cell membranes overexpressing full-length HAQ STING prepared in-house and tritiated cGAMP ligand also purified in-house.
The ability of compounds to bind STING is quantified by their ability to compete with tritiated cGAMP ligand for human STING receptor membrane using a radioactive filter-binding assay. The binding assay employs STING receptor obtained from Trichoplusia ni cell membranes (T. ni; Expression Systems, cat #94-002F, www.expressionsystems.com) overexpressing full-length HAQ STING and tritiated cGAMP ligand.
The basic HAQ STING filtration assay protocol is as follows: The compounds were serially titrated by the Hamilton STARPlus CORE in a 96-well plate (Greiner, #651201) using a 1:3 ten-point dose response format. […] Tritium levels for each reaction well were then measured using a PerkinElmer TopCount plate reader.
(§1) After normalization to controls, the percent activity for each compound concentration was calculated by measuring the amount of remaining radioactivity. […]

The subject of test [2] is THP1 cells. As to the kind of experiment: IFN-β secretion in THP1 cell culture (5 h). Conditions: 30 μM compound, 30 uM cGAMP = 100%. It is filed as cell-based, human. How it is done: The ability of compounds to stimulate the secretion of interferon-beta from THP1 cells was measured using a human IFN-β AlphaLISA kit (Perkin Elmer, Cat. No. AL265F). The basic protocol is as follows:
A Labcyte Echo 550 acoustic dispenser was used to transfer 120 nL of compound dissolved in DMSO into the wells of an empty, sterile 384-well microplate, (Corning, Cat. No. 3712). THP1 cells (American Type Culture Collection, Cat. No. TIB202) previously frozen in Recovery Medium (Life Technologies, Cat. No. 12648-010) were thawed and immediately diluted 10-fold into 37° C. assay medium (RPMI 1640+L-Glutamine & phenol red, Life Technologies, Cat. No. 11875-085; 0.5% heat inactivated fetal bovine serum, Sigma Aldrich, Cat. No. F4135; 1 mM Sodium Pyruvate, Life Technologies, Cat. No. 11360-070; lx non-essential amino acids; Life Technologies, Cat. No. 11140-050). The cell viability and count was ascertained using a Beckman Coulter V-Cell XR cell counter. The cell suspension was centrifuged at 200×g for 5 min at RT. […]
The assay was started by dispensing 40 μL of the previously prepared cell suspension into the wells of the plate containing compounds. […] The plate was then read on a Perkin Elmer Envision (λex=680 nm, λcm=570 nm). The percent effect of the AlphaLISA signal at each compound concentration was calculated based on 30 uM cGAMP positive controls and 0.3% DMSO negative controls. […]

Test [3] concerns the target T2, full-length WT STING (Homo sapiens, UniProt Q86WV6, H232R).
T2 construct: Full-Length STING WT [STING(1-379)H232R-gg-AviTag-gs-; made in house; host or cells: Trichoplusia ni insect cells via baculovirus (virus made in Sf21); used as a membrane preparation
The test is described as follows: 3H-cGAMP filtration binding assay (WT STING). The conditions noted are these: competition with tritiated cGAMP ligand, WT STING membrane. How it is done: The ability of compounds to bind STING is quantified by their ability to compete with tritiated cGAMP ligand for human STING receptor membrane using a radioactive filter-binding assay. The binding assay employs STING receptor obtained from Trichoplusia ni cell membranes (T. ni; Expression Systems, cat #94-002F, www.expressionsystems.com) overexpressing full-length WT STING and tritiated cGAMP ligand.
The basic WT STING filtration assay protocol is as follows: 16 nM of [^3H] c-GAMP ligand was prepared by diluting into assay buffer, and 50 uL of this working stock was manually added to each well of the assay plate. After ligand addition, 2 uL of either titrated test compound, DMSO control (Sigma #276855), or cold cGAMP control was added to the appropriate wells using a BIOMEK FX. The serially titrated compound was prepared on a Hamilton STARPlus CORE in a 96-well plate (Greiner, #651201) using a 1:3 ten-point dose response format. […] Tritium levels for each reaction well were then measured using a PerkinElmer TopCount plate reader.
as §1

T2 sequence (Q86WV6 with tags, fused parts or gaps H232R): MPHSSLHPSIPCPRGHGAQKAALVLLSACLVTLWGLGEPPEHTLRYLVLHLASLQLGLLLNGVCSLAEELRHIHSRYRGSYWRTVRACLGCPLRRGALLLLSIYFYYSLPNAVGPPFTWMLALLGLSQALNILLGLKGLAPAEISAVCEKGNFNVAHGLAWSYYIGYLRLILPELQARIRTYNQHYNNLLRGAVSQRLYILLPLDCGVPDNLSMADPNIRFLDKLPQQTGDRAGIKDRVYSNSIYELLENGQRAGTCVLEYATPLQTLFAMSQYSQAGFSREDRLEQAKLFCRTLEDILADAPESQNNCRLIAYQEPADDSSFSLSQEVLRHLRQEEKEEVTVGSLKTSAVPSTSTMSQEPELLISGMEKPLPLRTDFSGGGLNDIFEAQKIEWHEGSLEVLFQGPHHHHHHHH
T1 sequence (Q86WV6 with tags, fused parts or gaps R71H/G230A/H232R/R293Q): as the sequence (Q86WV6 with tags, fused parts or gaps H232R) above, with R71H, G230A, R293Q counted along it

One may read the EC50 as the concentration needed to bring the measured effect to its halfway point. `Nc1nc2c(ncn2[C@@H]2O[C@@H]3COP(=O)(S)O[C@@H]4C[C@H](n5cnc6c(N)ncnc65)O[C@@H]4COP(=O)(S)O[C@H]2C3)c(=O)[nH]1` (stereo partly drawn) [Example 1, 2-amino-9-[(5S,7R,8S,12aR,14R,15aR)-14-(6-amino-9H-purin-9-yl)-2,10-dioxido-2,10-disulfanyloctahydro-12H-5,8-methanofuro[3,2-1][1,3,6,9,11,2,10]pentaoxadiphosphacyclotetradecin-7-yl]-1,9-dihydro-6H-purin-6-one]: the results for the concentration giving a half-maximal response (EC50) in test [1] and in test [3] were 49.1 nM and 118 nM, respectively. The “% Effect at 30 μM relative to 2′3′-cGAMP” value in test [2] came to 107%.

The record behind these values is patent US20220024964A1, “Cyclic Di-Nucleotide Compounds as STING Agonists” (Merck Sharp & Dohme Corp., priority 2018, published 2022).
